The values below come from article doi:10.1101/2024.01.03.573903v1 (biorxiv, 2024).

In the experiment the target is T1, ZIKV NS3 helicase (Zika virus, UniProt Q32ZE1).
T1 sequence (Q32ZE1 1673-2115 limits assumed): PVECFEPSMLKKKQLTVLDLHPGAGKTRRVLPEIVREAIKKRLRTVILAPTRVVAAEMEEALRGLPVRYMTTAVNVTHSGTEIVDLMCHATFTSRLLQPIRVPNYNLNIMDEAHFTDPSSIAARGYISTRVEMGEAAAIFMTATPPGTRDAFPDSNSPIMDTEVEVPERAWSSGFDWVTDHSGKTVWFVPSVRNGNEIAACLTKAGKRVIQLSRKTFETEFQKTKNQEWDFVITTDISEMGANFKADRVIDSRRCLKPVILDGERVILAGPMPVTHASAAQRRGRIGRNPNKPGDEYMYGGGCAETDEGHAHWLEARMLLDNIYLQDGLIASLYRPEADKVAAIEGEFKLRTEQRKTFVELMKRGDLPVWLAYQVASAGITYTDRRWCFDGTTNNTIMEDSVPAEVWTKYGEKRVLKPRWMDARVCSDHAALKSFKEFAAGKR
Nature of the experiment: malachite green phosphate release NTPase assay. It is filed as biochemical.

Broadly, the IC50 is the concentration needed to halve the response being measured. Higher therefore signals a need for much substance.

Structures are written as SMILES.

Turning to `COc1cc(/C=C/C(=O)CC(=O)/C=C/c2ccc(O)c(OC)c2)ccc1O` [curcumin], the midpoint of inhibition, the IC50, lay at 64.4 µM.
